In patent US9422359B2, “GPCR fusion protein containing an N-terminal autonomously folding stable domain, and crystals of the same” (The Board of Trustees of the Leland Stanford Junior …, priority 2011, dated 2016):
One block for each compound: values may come before it.

Columns and labels:
[1] = target: T1, R:G complex (Bos taurus, UniProt P04896); test: Analytical gel filtration, stability of the R:G complex
T1 construct: HA signal peptide (N); made in house; host or cells: receptor: Sf9 insect cells (baculovirus); Gs subunits: HighFive insect cells
T1 sequence (P04896 1-380 isoform P04896-2, one chain of several): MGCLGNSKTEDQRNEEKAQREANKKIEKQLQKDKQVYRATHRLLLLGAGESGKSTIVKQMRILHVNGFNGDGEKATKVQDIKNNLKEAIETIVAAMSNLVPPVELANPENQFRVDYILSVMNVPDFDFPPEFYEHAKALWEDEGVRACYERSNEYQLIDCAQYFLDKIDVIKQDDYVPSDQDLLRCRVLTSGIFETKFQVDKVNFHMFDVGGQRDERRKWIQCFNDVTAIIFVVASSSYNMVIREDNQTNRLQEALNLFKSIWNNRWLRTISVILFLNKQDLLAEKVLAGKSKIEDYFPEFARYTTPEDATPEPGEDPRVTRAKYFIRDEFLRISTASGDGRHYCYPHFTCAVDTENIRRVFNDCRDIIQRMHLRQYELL
Procedure: […]. Nature 2011 469, 175-180). To maintain the high-affinity nucleotide-free state of the complex, apyrase (25 mU/ml, NEB) was added after 90 min to hydrolyze residual GDP released from G ? supon binding to the receptor. GMP resulting from hydrolysis of GDP by apyrase has very poor affinity for the G protein in the complex.
At this stage the mixture contains the R:G complex, non-functional Gs, and an excess of β2AR. […] To prevent cysteine bridge-mediated aggregation of R:G complexes, 100 μM TCEP was added to the eluted protein prior to concentrating it with a 50 kDa MWCO Millipore concentrator. Of note, it was discovered later that crystal growth improved at even higher TCEP concentrations (above 1 mM) compared to 100 μM TCEP, and that the integrity of the R:G complex in MNG-3 was stable to 10 mM TCEP as measured by gel filtration analysis (FIG. 21C). In contrast, DDM-solubilized β2AR loses its ability to bind the high-affinity antagonist ^3H-dihydroalprenolol in 10 mM TCEP (data not shown), probably due to disruption of extracellular disulfide bonds. Iodoacetamide could not be used to block reactive cysteines on Gs alpha and beta subunits as it caused dissociation of the R:G complex (figure S9b). […] Peak fractions were pooled (FIG. 17b) and concentrated to approximately 90 mg ml^−1 with a 100 kDa MWCO Viva-spin concentrator and analyzed by SDS-PAGE/Coomassie brilliant blue staining (FIG. 17a) and gel filtration (FIG. 17c). To confirm a pure, homogeneous, and dephosphorylated preparation, the R:G complex was routinely analyzed by ion exchange chromatography (FIG. 17d).

[2] = target: T2, T4L-β2AR (Homo sapiens, UniProt P07550, M96T/M98T/N187E); test: Ligand binding affinity of T4L-β2AR with M96T, M98T mutations
T2 construct: HA signal peptide (N, cleaved yes); made in house; host or cells: Sf9 insect cells, recombinant baculovirus
Description: To increase the probability of obtaining crystals of the R:G complex two strategies were used to increase the polar surface area on the extracellular side of the receptor. […] The PNGaseF-inaccessible glycosylation site of the β2AR at N187 was mutated to Glu.

SMILES: O=P(O)(O)OP(=O)(O)O [pyrophosphate]
- effect on the R:G complex ([1]; phosphates used at 5 mM): do not cause disruption of the complex

SMILES: CCCc1ccccc1OCC(O)CNC(C)C (centres unmarked) [[3H]-Dihydroalprenolol, dihydroalprenolol]
- effect of the threonine mutations (M96T, M98T) on ligand binding affinity [2]: did not affect ligand binding affinity

- effect on the R:G complex ([1]; nucleotides at 0.1 mM): cause dissociation of the R:G complex
SMILES: Nc1nc2c(ncn2[C@@H]2O[C@H](COP(=O)(O)OP(=O)(O)OP(O)(O)=S)[C@@H](O)[C@H]2O)c(=O)[nH]1 [GTPγS]

SMILES: NC(=O)CI [iodoacetamide]
- effect on the R:G complex ([1]; 5 mM for 20 hrs at 20° C.): led to dissociation of the complex

SMILES: Nc1nc2c(ncn2[C@@H]2O[C@H](COP(=O)(O)OP(=O)(O)O)[C@@H](O)[C@H]2O)c(=O)[nH]1 [GDP]
- effect on the R:G complex ([1]; nucleotides at 0.1 mM): cause dissociation of the R:G complex
